Results reported in PMC11612208, “A novel small molecule Enpp1 inhibitor improves tumor control following radiation therapy by targeting stromal Enpp1 expression” (Scientific Reports, 2024).

Tests used:
[1] = biological target: T1, HepG2 cells that express ENPP1 on their surface (Homo sapiens, UniProt P22413); assay: Cellular inhibition of cGAMP hydrolysis on HepG2 cells (cGAMP ELISA); assay type: cell-based; conditions: 100 ng/mL 2'3'-cGAMP, overnight (20 h), read-out: EC50, protection of spiked-in cGAMP from hydrolysis
T1 construct: HepG2 cells that express ENPP1 on their surface; host or cells: HepG2
T1 sequence (P22413 1-925): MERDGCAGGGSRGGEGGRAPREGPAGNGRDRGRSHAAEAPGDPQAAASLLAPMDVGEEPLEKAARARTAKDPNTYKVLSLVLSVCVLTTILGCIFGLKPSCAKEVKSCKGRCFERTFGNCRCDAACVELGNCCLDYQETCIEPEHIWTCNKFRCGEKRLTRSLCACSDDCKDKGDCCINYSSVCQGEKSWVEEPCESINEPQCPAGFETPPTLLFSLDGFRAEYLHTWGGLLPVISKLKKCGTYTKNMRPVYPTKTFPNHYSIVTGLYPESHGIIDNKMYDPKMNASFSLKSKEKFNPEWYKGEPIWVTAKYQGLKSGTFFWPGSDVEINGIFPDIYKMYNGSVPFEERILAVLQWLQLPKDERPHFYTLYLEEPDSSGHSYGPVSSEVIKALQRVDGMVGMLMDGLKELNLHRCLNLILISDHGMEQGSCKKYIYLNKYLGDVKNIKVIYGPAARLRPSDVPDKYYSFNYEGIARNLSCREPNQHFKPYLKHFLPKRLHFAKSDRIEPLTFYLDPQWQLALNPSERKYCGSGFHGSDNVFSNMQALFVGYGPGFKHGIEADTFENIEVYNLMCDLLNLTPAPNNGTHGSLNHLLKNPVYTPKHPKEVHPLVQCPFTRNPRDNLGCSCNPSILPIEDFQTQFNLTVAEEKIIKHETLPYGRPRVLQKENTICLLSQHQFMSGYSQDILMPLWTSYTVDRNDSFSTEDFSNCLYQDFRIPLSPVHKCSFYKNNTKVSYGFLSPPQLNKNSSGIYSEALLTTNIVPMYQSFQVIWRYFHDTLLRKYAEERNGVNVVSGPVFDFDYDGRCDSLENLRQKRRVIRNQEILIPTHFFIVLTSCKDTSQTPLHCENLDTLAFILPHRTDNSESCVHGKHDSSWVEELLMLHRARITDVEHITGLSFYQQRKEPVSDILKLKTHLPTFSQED
Method: (§1) Enzymatic inhibition assays were performed by incubating 1.5 nM ENPP1 (R&D Systems cat# 6136-EN-010) with serial dilutions of Vir-3 for 15 minutes at 37 °C in buffer (50mM Tris pH 8.0, 250mM NaCl, 0.5mM CaCl2, 1uM ZnCl2, 1% DMSO) before adding 20 uM 2’3’-cGAMP (Invivogen cat.# tlrl-nacga23). The reaction was incubated for 30 min at 37 °C prior to assessing the generated AMP using the AMP-Glo assay (Promega cat.# V5012). Cellular inhibition of cGAMP hydrolysis was performed using HepG2 cells pre-incubated with serial dilutions of Vir-3 in DMEM + 10% Charcoal stripped FBS for 30 min at 37 °C with 5% CO2. 100 ng/mL of 2’3’-cGAMP was then added to the cells and incubated for 20 h at 37 °C with 5% CO2. Media was then removed and the remaining cGAMP was quantified using a 2’3’-cGAMP ELISA kit (Cayman Chemical cat.# 501700).

[2] = system: CT26 tumors; assay: CT26 tumor model in BALB/c mice, VIR3 oral gavage +/- 12 Gy focal RT, survival; assay type: in vivo, mouse; conditions: daily oral gavage for 21 days
Method: (§2) Tumors were implanted subcutaneously into the right flank as follows: C57BL/6 2 × 10^5 MC38; BALB/c 2 × 10^5 CT26. When tumors were approximately 5 mm in average diameter at approximately 10–14 days following implantation, mice were randomized to receive treatment with CT-guided radiation using the Small Animal Radiation Research Platform (SARRP) from XStrahl. Dosimetry was performed using Murislice software from XStrahl. The SARRP delivered a single dose of 12 Gy to an isocenter within the tumor using a 10 mm x 10 mm collimator and a 45° beam angle to minimize dose delivery to normal tissues. The Enpp1 inhibitor VIR3 was delivered through oral gavage starting 1 day prior to RT daily for 21 days. Tumors were measured using calipers in two directions and reported as mean tumor diameter. Survival curves were based on an endpoint of tumor diameter of greater than 12 mm in any direction.

[3] = biological target: T2, Enpp1 (Homo sapiens, UniProt P22413); assay: Selectivity and specificity for Enpp1 (statement); conditions: additional studies necessary to confirm in vivo
T2 sequence (P22413 1-925): T1 sequence (P22413 1-925)

[4] = system: MC38 tumors; assay: MC38 tumor model, VIR3 oral gavage +/- 12 Gy focal RT, survival; assay type: in vivo, mouse
Method: as §2
To deplete CD8 T cells, 200 µg of depleting anti-CD8b (53 − 5.8, BioXCell, West Lebanon, NH) were administered intraperitoneally. This administration took place one day before the first dose of Vir3, followed by two additional anti-CD8b administrations at 7-day intervals.

[5] = Toxicity observation in treated mice; assay type: in vivo; conditions: mice treated with oral VIR3
[6] = system: MC38 and CT26 tumors; assay: RNASeq of tumors 4 days following radiation treatment; assay type: in vivo, mouse; conditions: VIR3 treatment
Method: Mice were implanted with tumors and randomized to treatment with 12 Gy RT and VIR3 as above. 4d following RT, the tumors were harvested, debulked and immediately flash frozen by rapid immersion in liquid nitrogen. Frozen tumors were crushed, treated with 500 µl of RNAlater, then frozen at -80 °C. To extract RNA, the samples were thawed on ice, and 500 µl of buffer RLT (QIAGEN Cat. No. 79219) was added and samples were homogenized. Following centrifugation, RNA was isolated using a QIAGEN RNeasy Plus Mini Kit (Cat No. 74134), according to the manufacturer’s instructions. Quality was checked on nanodrop (ND-1000) and the quantity of RNA was determined on Qubit 4 flourometer. To prepare for sequencing, samples were processed using an Illumnia TruSeq® Stranded mRNA Library Prep kit with Illumina TruSeq RNA Single Indexes Set A and Set B barcoding kits. An Illumnia NovaSeq 6000 S1 Reagent Kit v1.5 was used to make RNA libraries along with a NovaSeq XP 2-Lane Kit v1.5. RNA libraries were sequenced on NovaSeq 6000.
Demultiplexed fastq files for all samples were first processed with FastQC for general quality control. All the samples in the sequencing run passed read level QC with at least 17 million reads per sample. Average read depth across all samples were 51 million reads. Raw illumina BCL data was demultiplexed using Illumina bcl2fastq2 v2.20. Gene expression counts were quantified using salmon-v.1.1.0 [76] for all samples sequenced. Differential gene expression analysis was performed using the R software package edgeR[77]. Differential gene expression analysis was performed on all groups of Tumor+/-Drug+/-RT combinations. Gene set enrichment analysis was performed using GSEA v4.3.2 Preranked method[78],[79]. The following genesets; c3.all.v2023.2.Hs.symbols.gmt, c5.all.v2023.2.Hs.symbols.gmt, c7.all.v2023.2.Hs.symbols.gmt from Molecular Signatures Database (gsea-msigdb.org) were used for enrichment analysis.

[7] = system: cDC1 and cDC2 in MC38 tumors; assay: Flow cytometry of myeloid infiltration in MC38 tumors; assay type: in vivo, mouse; conditions: 4 days following radiation time point (d18)
Method: Analysis of tumor infiltrating myeloid cells was performed as previously described. Briefly, following dissection, tumors were weighed and minced into small fragments, then transferred into C tubes from Miltenyi Biotec containing enzyme digest mix with 250U/mL collagenase IV (Worthington Biochemical, #LS004188), 30U/mL DNase I (Millipore-Sigma, #4536282001), 5mM CaCl2, 5% heat inactivated FBS and HBSS. Tissue was dissociated using a GentleMACS tissue dissociator from Miltenyi Biotech. This was followed by incubation at 37 °C for 30 min with agitation. Enzymatic reactions were quenched using ice cold RPMI containing 10% FBS and 2mM EDTA. Single cell suspensions were then filtered through 100 μm (tumor) or 40 μm (dLN) nylon cell strainers to remove macroscopic debris. Cells were washed and counted for staining. 2 × 10^6 cells were stained with Zombie Aqua Viability Dye from BioLegend (#423102) in PBS for 10 min on ice, then Fc receptors were blocked with anti-CD16/CD32 antibodies from BD Biosciences (2.4G2) for an additional 10 min. After centrifugation, the supernatant was removed and cell were stained with a surface antibody cocktail containing in FACS buffer (PBS, 2mM EDTA, 2% FBS) and Brilliant Stain Buffer Plus from BD Biosciences (#566385) for 20 min on ice. […] Data were analyzed using FlowJo software from Tree Star, v10.7. […]

[8] = biological target: T2, Enpp1; assay: Enzymatic inhibition of recombinant ENPP1 cGAMP hydrolysis (AMP-Glo); assay type: biochemical; design: purchased R&D Systems 6136-EN-010; conditions: recombinant ENPP1 1.5 nM, 20 uM 2'3'-cGAMP; value is the lower threshold of the assay
Method: as §1

[9] = In vivo pharmacokinetics, IV and PO; conditions: mouse
Method: For pharmacokinetic analysis, female C57BL6 mice were dosed with Vir-3 by either IV administration or oral gavage or IV administration either once or daily for 5 days. 3 mice were used per time point with staggered groups to cover all times. Blood was collected at 0.25, 0.5, 1, 3-, 5-, 8- and 24-hours post-dose into heparinized tubes. Plasma was prepared from each sample and protein precipitated prior to LC-MS/MS injection. Levels of Vir-3 were quantitated, and data was analyzed using Certara’s Phoenix Winnonlin.

SMILES: COc1ccc2c(Nc3ccc(S(=N)(=O)NCC(C)O)cc3)ccnc2c1 (centres unmarked) [VIR3]
- EC50 [1]: 6.7 nM
- response to radiation therapy (survival), VIR3 + RT ([2]; 12 Gy on day 14): significantly improved the response to radiation therapy
- tumor growth, VIR3 alone ([2]; no RT): did not impact tumor growth alone
- selectivity and specificity for Enpp1 [3]: high selectivity and specificity
- response to radiation therapy (survival), VIR3 + RT ([4]; MC38 tumors in C57BL/6 mice, daily oral gavage for 21 days, 12 Gy on second day of dosing): significantly improved the response to radiation therapy
- tumor growth, VIR3 alone ([4]; MC38 tumors in C57BL/6 mice, daily oral gavage for 21 days, no RT): did not impact tumor growth alone
- response to RT + VIR3 with loss of IFNAR1 in host cells ([4]; MC38 tumors in IFNAR1-/- mice): completely abrogated all responses to treatment
- tumor control by RT + VIR3 with loss of STING in host cells ([4]; MC38 tumors in STING-/- mice, no statistically significant difference in survival by logrank test): fewer mice cured
- tumor control by RT + VIR3 with CD8 depletion ([4]; MC38 tumors, wt mice, anti-CD8 given): abrogated tumor control
- toxicity [5]: toxicity was not observed
- Cdkn1a and Ccl2 gene expression in tumor ([6]; CT26 and MC38 tumors): not impacted
- Tsc33d3 gene expression in tumor ([6]; both CT26 and MC38 tumors): upregulated
- Wee1 gene expression in tumor ([6]; untreated and irradiated CT26 and MC38 tumors, FDR correction): significantly regulated
- dendritic cells (cDC1, cDC2) in tumor, VIR3 alone [7]: can cause DC loss
- IC50 [8]: < 0.75 nM
- Cmax, total ([9]; P.O. 60 mg/kg): 795 ng/mL
- oral bioavailability (in words) ([9]; comparing IV and PO routes): low
- half-life ([9]; female, C57BL6, plasma, iv, I.V. 1 mg/kg): 48.3 h
- clearance ([9]; female, C57BL6, plasma, iv, I.V. 1 mg/kg, approximate given extrapolation from a portion of AUCinf): ~27.7 mL/min/kg
- Vd ([9]; female, C57BL6, plasma, iv, I.V. 1 mg/kg, read-out: Vss): 52.5 L/kg
- bioavailability ([9]; female, C57BL6, plasma, oral, P.O. 60 mg/kg vs I.V. 1 mg/kg): 5.7%
- half-life ([9]; female, C57BL6, plasma, po, P.O. 60 mg/kg): 24.3 h
- AUC(0-t) ([9]; female, C57BL6, plasma, po, P.O. 60 mg/kg, read-out: AUC0-last, total): 1420 ng·h/mL
